From patent US5179089A, “Isoquinoline compounds, compositions and use” (Chinoin Gyogyszer es Vegyeszeti Termekek Gyara Rt., priority 1990, dated 1993)
Read-outs that look alike come from different tables or passages of the source.

Key:
[1] = system: dextran-induced rat paw edema; experiment: Dextran-induced rat paw edema test; assay type: in vivo; conditions: 50 mg/kg (p.o.)
Experimental: 3) Dextran-induced rat paw edema test The method of S. Gourvaisier and R. Ducrot [Arch. Int. Pharmacodyn. Ther. 102, 33 (1955)] was employed. The method described for the carrageenin edema test was followed, except that the measurements were carried out 30, 60, 90, 120 and 180 minutes after induction of the inflammation.

[2] = system: carrageenin-induced rat paw edema; experiment: Carrageenin-induced rat paw edema test; assay type: in vivo, rat (female CFY); conditions: Rattus norvegicus, po, 50 mg/kg (p.o.), read-out: Percentage of the protective effect
Experimental: Proc. Soc. Exp. Med. 111, 544 (1962)]. Female CFY rats weighing 100 to 120 g each were used after starvation for 24 hours. The inflammation was induced by injecting 0.1 ml of 1% carrageenin solution into the right hind paw plant. The severity of inflammation was determined by using an Ugo-Basile type plethysmometer. The measurement was carried out before and 1.5, 3 and 4.5 hours after induction of the inflammation. The animals were orally treated with the substance to be tested 1 hour before administration of carrageenin. The effect was expressed as percentage inhibition related to the control group.

LD50 on rat = conditions: in vivo, iv
LD50 on mouse = conditions: in vivo
[3] = system: histamine-induced constriction of isolated tracheal smooth muscle of guinea pig; experiment: Inhibition of the histamine-induced constriction of isolated tracheal smooth muscle of guinea pig; conditions: Cavia porcellus, 0.25 h, isolated guinea pig trachea, read-out: Inhibition of the histamine-induced constriction of isolated tracheal smooth muscle of guinea pig pd'2 (converted)
Experimental: I Study on the Effects Against Spasmogenic Mediators [modified method of J. C. […] The investigation on isolated organs were carried out as follows. OHF Lt/R9 guinea pigs of both sexes weighing 300 to 400 g each were anaesthetized by pentobarbital. Their trachea was removed and sectioned in the opposite side to the site of smooth muscle in longitudinal direction. Subsequently, a strip-like preparation was obtained by […] cutting. […] A rest load of 0.5 g was used. Several washings were carried out during the incubation period of 30 minutes. The change in the tension of the tracheal smooth muscle was followed by using an isometric Grass FT-03 type tensiometer sensor device. A washing was made following the cumulative dose series of the given mediator (e.g. histamine). After reaching the base line, by 15 minutes after administration of the given concentration of the inhibitory (antiasthmatic) substance to be tested, the next cumulative dose series of the mediator was administered. In the case of an inhibitory action, the strength of effect, following the second dose series of the mediator, was […] in comparison to that of the first (control) series. For characterization of strength of the competitive antagonistic effect the pA2 value was determined according to the method of […] A pd'2 value was calculated [J. M. Van Rossum: Arch. Int.

[4] = system: active local anaphylactic reaction; experiment: Effect influencing the active local anaphylactic reaction on rat; assay type: in vivo, rat (female OFA); conditions: oral dose of 50 mg/kg, 30th minute after induction
Experimental: 1) The effect influencing the active local anaphylactic reaction was measured according to the method of M. Koltay [Arch. Allergy App. Immun. 71, 181 (1983)].
Female OFA rats weighing 160 to 180 g each were sensitized by bovine serum albumin (BSA) adsorbed to 50 μg of Al(OH)3 gel together with the simultaneous administration of Bordatella pertussis vaccine.
The anaphylactic reaction was elicited by injecting 100 μg of BSA into the right hind paw plant in the 14th day.
The measurements were carried out before and 30 minutes after eliciting the reaction. The animals were orally treated with the compound to be tested 1 hour before the injection of BSA. The results were expressed as percentage inhibition compared to the control group (average %±S.E.M.).

Structure (SMILES): CCOc1cc2c(cc1OCC)C(=C(C#N)SCC(O)CN1CCOCC1)NCC2 (stereo not shown) [Example 18, 2-(6,7-diethoxy-1,2,3,4-tetrahydro-1-isoquinolinylidene)-2-[2-hydroxy-3-(4-morpholinyl)propyl]mercaptoacetonitrile]
- Percentage of inhibition ([1]; 30 minutes): 29.8%
- Percentage of inhibition ([1]; 60 minutes): 38.7%
- Percentage of inhibition ([1]; 90 minutes): 30.4%
- Percentage of inhibition ([1]; 120 minutes): 26.3%
- Percentage of inhibition ([1]; 180 minutes): 28.4%
- change in vivo at 50 mg/kg ([2]; 1.5 hours): -35.8%
- change in vivo at 50 mg/kg ([2]; 3 hours): -29.3%
- change in vivo at 50 mg/kg ([2]; 4.5 hours): -28.4%
- LD50 (LD50 on rat; female rat): 133 mg/kg
- LD50 (LD50 on rat; male rat): 91.4 mg/kg
- LD50 (LD50 on mouse; iv, female mouse, read-out: LD50 i.v.): 150 mg/kg
- LD50 (LD50 on mouse; iv, male mouse, read-out: LD50 i.v.): 166 mg/kg
- LD50 (LD50 on mouse; po, female mouse, read-out: LD50 p.o.): 1030 mg/kg
- LD50 (LD50 on mouse; po, male mouse, read-out: LD50 p.o.): 1200 mg/kg
- IC50 [3]: 123 nM
- Percentage of inhibition of the active local anaphylactic reaction [4]: -31%
